# Results as given in a melting point compilation (Tetko et al.; mined from patent text by program, amines drawn as free bases though some values may be those of a salt).
row,SMILES,melting point [°C]
1,CC(=O)NC(C(=O)O)C1c2ccccc2CCc2ccccc21 (stereo not drawn),220 to 223
2,O=C(N[C@H]1CC[C@H](CCN2CCN(c3nccc4c3OCC4)CC2)CC1)c1cnc(N2CCOCC2)cn1,200
3,CCOC1=NS(=O)(=O)c2ccc(N)cc21,154 to 156
4,CCOc1ccc2nc(Cl)c(C=NOC)cc2c1,142 to 144
5,CCCCC(=O)NCCc1c(OC)ccc2ccccc12,69 to 75
6,Cc1ccc(-c2nc(Cc3cccc(CO)c3)c(C)o2)cc1,97 to 99
7,Fc1ccc(Oc2ccnc3cccnc23)cc1,122 to 124
8,CCC(C)(Cc1c[nH]c2ccc(F)cc12)[N+](=O)[O-] (stereo not drawn),71 to 72
9,NC(=O)C(=O)c1c2n(c3ccccc13)CCNCC2,214 to 215
10,O=C(NC1CCN(CCC2CCOc3ccccc32)CC1)C1CCc2ccccc2C1 (stereo not drawn),130 to 132
11,COc1ccc(N2CCN(c3ccc(NC4=NC(C)(C)CS4)cc3)CC2)cc1,232
12,Clc1nc(NCc2cccc(I)c2)c2ncn(C3CCCO3)c2n1 (stereo not drawn),180 to 182
13,COc1ccc(Nc2nc(N)nc3[nH]c4ccccc4c23)cc1,209
14,N#Cc1cc(=O)c2ccc(OCCCCl)cc2o1,124 to 125
15,O=C(NC1CC1)c1cc2[nH]cnc2c(Cl)c1NC(=O)c1cc(C(F)(F)F)nn1-c1ncccc1Cl,198 to 201
16,CCN1C(=O)C(C)(C)C(=O)N(C)c2cc(CN(CCn3ccc4oc(C)cc4c3=O)Cc3nc(C)n4ccccc34)ccc21,104 to 109
17,COC12CC(CN3CCC(c4c[nH]c5ccccc45)CC3)CN(C)C1Cc1c(Br)[nH]c3cccc2c13 (stereo not drawn),160 to 170
18,Cc1nc(C)c(I)nc1C,59 to 63
19,N#Cc1nn(-c2c(Cl)cc(C(F)(F)F)cc2Cl)c(N)c1C=O,194 to 197
20,CCCCn1c(=O)c2[nH]cnc2n(CCCC)c1=S,137

row,SMILES,melting point [°C]
1,O=C(NCCCCCNc1c([N+](=O)[O-])cnc2ccccc12)c1ccccc1,130 to 132
2,O=C1NCCOc2c1sc1ccccc21,244 to 245
3,N#Cc1ccc(CNc2cc(C(N)=O)c([N+](=O)[O-])cc2[N+](=O)[O-])cc1,201 to 203
4,COCCNC(=O)c1ccc(N2CCC(N3C(=O)OCc4ccccc43)CC2)c([N+](=O)[O-])c1,192 to 193
5,O=C(NOCC(O)CN1CCCCC1)Nc1cccc([N+](=O)[O-])c1 (stereo not drawn),137 to 139
6,COC(=O)C1=Cc2cc(Br)cnc2N(CC(C)C)CCC1,79.5 to 80.5
7,Cc1cc(OC(C)(C)C(=O)O)c(C)c(Br)c1C,151 to 153
8,Cc1nc(NC(=O)N(C)C)sc1C,202 to 204
9,N#Cc1ccccc1OCCCCC(=O)O,87 to 89
10,Cc1ccc(S(=O)(=O)c2cn(S(=O)(=O)c3ccccc3)c3ccccc23)cc1,189 to 190
11,CC(=O)OC1=C(CCCCCCCCC[Si](C)(C)C)C(=O)c2ccccc2C1=O,45 to 47
12,CC(C)C(=O)Nc1ccc(C(=O)O)cc1N,159 to 160
13,CCOC(=O)COc1c(Cl)c(Cl)c2c(-c3ccccc3F)noc2c1Cl,140 to 143
14,CCCCCCCCCCCCc1ccc(NC2CCCc3ccccc32)cc1 (stereo not drawn),34
15,CCOC(c1ccc(Cl)c2nc3n(c12)CCCN3c1ccc(OC)nc1C)C(F)(F)F (stereo not drawn),168 to 170
16,CCOc1nn(Cc2ccc(OCc3cn4c(OCC)cccc4n3)cc2)cc1CCC(=O)O,197 to 198
17,CCCN(c1c([O-])[c+](N(CCC)C2CC(C)(C)NC(C)(C)C2)[c+]1[O-])C1CC(C)(C)NC(C)(C)C1,198 to 199
18,COc1cc2c(cc1C(C)(C)C)CCC2Cc1c[nH]cn1 (stereo not drawn),174 to 184
19,CC(=O)N1CCC(CCCC(=O)c2ccc(F)cc2)CC1,77 to 78
20,O=S(=O)(c1ccc(Cl)cc1)C(CCCCCCO)c1cc(F)ccc1F (stereo not drawn),77 to 79

# Further lines, results first:
row,melting point [°C],SMILES
1,50 to 53,Cc1cc(OC(=O)C(C)(C)C)c(C)c(C)c1OCc1ccccc1
2,224 to 225,OCC1OC(n2cnc3c(-c4ccccc4)ncnc32)C(O)C1O (stereo not drawn)
3,164 to 166,CCn1c([N+](=O)[O-])cnc1-c1nnc2ccc(Cl)nn12
4,108 to 109,O=C1COC(=O)C1=Cc1cccc(C(F)(F)F)c1
5,137 to 138,O=C(OCc1ccccc1)c1ccc(OC(=O)c2ccc(O)cc2)cc1
6,210 to 212,Cn1ncc(C(=O)N2CCCC2)c1C(=O)Nc1ccn2nc(N3CCOCC3)nc2c1
7,180 to 183,COc1ccc(-c2nc3cc(OC)cc(C#N)c3o2)cc1
8,105 to 106,CC(C)C[C@@H](C(=O)OC(C)(C)C)N1C(=O)NC(C(F)(F)F)(C(F)(F)F)C1=O
9,151 to 152,CN(C)CC1CNc2cc(O)ccc2C1 (stereo not drawn)
10,69 to 70,COC(=O)CCCCCNC(=O)c1cccc(OC)c1O
11,198,Cn1ncnc1COc1nn2c(-c3cccc(F)c3)nncc2c1-c1ccccc1
12,242 to 244,Cc1cc(C(=O)O)cc(Cl)c1O
13,101 to 102,C(=C\c1cn(-c2ccccc2)nc1OCc1ccccc1)/c1cscn1
14,122 to 123,COc1ccc(S(N)(=O)=O)cc1C(=O)NCc1ccc(OCCN(C)C)cc1
15,71,CSC(=C[N+](=O)[O-])NCCSCc1ccc(CN(C)C)o1
16,89 to 90,COc1cccc(-c2cnn(-c3ccccn3)c2)c1
17,114 to 116,NC(=O)N(O)Cc1ccc(Oc2ccccc2)s1

row,melting point [°C],SMILES
1,100 to 102,CC(C)N(CCN1C(=O)C(=O)c2cc(F)ccc21)C(C)C
2,110 to 112,CCOC(=O)c1c(N2CCN(c3ccccc3)CC2)c2ccc(C)nc2n(CC)c1=O
3,219 to 221,O=C1CCC(N2C(=O)c3cccc(Nc4ccc(C5CCCCC5)cc4)c3C2=O)C(=O)N1 (stereo not drawn)
4,149 to 150,C#CC1(O)CCC2C3CCC4=CC(=O)CCC4C3CCC21CCC (stereo not drawn)
5,196 to 197,COc1ccc2c(c1)C(Cc1ccnc(F)c1)(Cc1ccnc(F)c1)c1cccnc1O2
6,93.5 to 95,CNC(=O)N1CC(Oc2cc(C(F)(F)F)ccc2F)C1
7,87 to 90,COc1cccc(C(Cn2ccnc2)=[N+](C)[O-])c1
8,9,CON(C)C(=O)c1ccc(F)cc1
9,156 to 158,COC(=O)C1=C(C)NC(C)C(C(=O)OC)=C1c1cc(Cl)ccc1COCc1ccccc1 (stereo not drawn)
10,85 to 86,COC(=O)c1ccc([N+](=O)[O-])c([N+](=O)[O-])c1
11,135 to 137,CC(=O)Nc1ccc2c(c1)/C(=N\NC(N)=O)C(=O)N2CCN(C(C)C)C(C)C
12,214,Cc1c(-c2ccc(N3CCOC3=O)cc2)nc2n1CCc1ccccc1C2OC1CCN(C)CC1 (stereo not drawn)
13,127 to 137,CC(C)c1ccc(C(=O)C(c2ccccc2)C2CCCCC2)c(C(C)C)c1OS(N)(=O)=O (stereo not drawn)
14,103,CC(=O)/C=C(\C)c1ccc(-c2ccccc2)c(F)c1
15,268 to 270,CC(SSc1ccccc1C(=O)Nc1ccc(S(N)(=O)=O)cc1)C(=O)O (stereo not drawn)
16,181 to 184,CCCCN(CCCC)c1ccc(C=CC=CC2=C(C#N)C(=C(C#N)C#N)OC2(C)C)c(OC)c1
